This assay addresses Acetylcholinesterase (Homo sapiens, UniProt P22303). Put plainly: Inhibition of human erythrocyte AChE using S-acetylthiocholine iodide as substrate pretreated for 20 mins followed by substrate addition measured after 30 mins by Ellman's method.

Each structure is given as a SMILES string. Some results are limits rather than exact numbers.

This passage reports IC50 results from ChEMBL document CHEMBL4138291, “Mucroniferanines A-G, Isoquinoline Alkaloids from Corydalis mucronifera” (J Nat Prod, 2018).

Acetylcholinesterase, sequence (P22303 whole entry): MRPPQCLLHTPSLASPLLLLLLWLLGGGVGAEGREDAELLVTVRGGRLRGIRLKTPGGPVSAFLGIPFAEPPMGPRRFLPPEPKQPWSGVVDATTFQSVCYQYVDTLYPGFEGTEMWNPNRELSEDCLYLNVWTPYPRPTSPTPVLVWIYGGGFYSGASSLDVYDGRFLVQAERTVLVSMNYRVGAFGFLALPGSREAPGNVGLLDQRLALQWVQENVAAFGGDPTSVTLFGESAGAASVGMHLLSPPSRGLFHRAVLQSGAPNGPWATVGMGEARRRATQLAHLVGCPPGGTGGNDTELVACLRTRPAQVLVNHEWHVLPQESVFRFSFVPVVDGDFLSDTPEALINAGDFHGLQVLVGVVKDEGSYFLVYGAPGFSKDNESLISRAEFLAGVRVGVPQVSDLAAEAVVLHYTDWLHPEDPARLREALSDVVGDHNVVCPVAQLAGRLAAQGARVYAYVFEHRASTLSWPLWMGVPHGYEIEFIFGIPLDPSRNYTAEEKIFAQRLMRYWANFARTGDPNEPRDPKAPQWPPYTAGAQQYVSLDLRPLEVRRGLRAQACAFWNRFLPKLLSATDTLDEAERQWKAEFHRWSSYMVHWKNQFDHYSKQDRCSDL

For `COc1ccc2c(c1O)CN1CCc3cc4c(cc3C1C2)OCO4` (configuration not stated), the IC50 is more than 100 µM. With `C[C@@]1(c2nccc3cc4c(cc23)OCO4)Oc2ccc3c(c2O1)OCO3` the figure was more than 100 µM; with `CO[C@@H]1O[C@](C)(c2nccc3cc4c(cc23)OCO4)c2ccc3c(c21)OCO3`, more than 100 µM. Turning to `CN1CCc2cc3c(cc2[C@H]1[C@H]1O[C@@H](O)c2c1ccc1c2OCO1)OCO3`, the IC50 is more than 100 µM.

On to `CO[C@@H]1O[C@H]([C@@H]2c3cc4c(cc3CCN2C)OCO4)c2ccc3c(c21)OCO3`, for which the IC50 is more than 100 µM. To `CO[C@@H]1O[C@@](C)(c2nccc3cc4c(cc23)OCO4)c2ccc3c(c21)OCO3` belongs more than 100 µM; to `c1cc2cc3c(cc2c([C@H]2Oc4ccc5c(c4O2)OCO5)n1)OCO3`, 78.1 µM; to `CN1CCc2cc3c(cc2[C@H]1[C@H]1OC(=O)c2c1ccc1c2OCO1)OCO3`, more than 100 µM. For the molecule `C[C@@H](c1ccc2c(c1O)OCO2)c1nccc2cc3c(cc12)OCO3`, the IC50 is more than 100 µM. As to `CO[C@H]1O[C@@](C)(c2nccc3cc4c(cc23)OCO4)c2ccc3c(c21)OCO3`, the IC50 was determined as 28.3 µM. Turning to `CN1CCc2cc3c(cc2C1=O)OCO3`, the IC50 was more than 100 µM. With `C[C@]1(c2nccc3cc4c(cc23)OCO4)Oc2ccc3c(c2O1)OCO3` the figure was more than 100 µM. Take `COC1c2c(ccc3c2OCO3)-c2ccc3cc4c(cc3c2N1C)OCO4` (configuration not stated): the IC50 turned out to be 96.8 µM. To `c1cc2cc3c(cc2c([C@@H]2Oc4ccc5c(c4O2)OCO5)n1)OCO3` belongs more than 100 µM; to `C[C@H](c1ccc2c(c1O)OCO2)c1nccc2cc3c(cc12)OCO3`, more than 100 µM; to `CO[C@H]1O[C@](C)(c2nccc3cc4c(cc23)OCO4)c2ccc3c(c21)OCO3`, more than 100 µM. For the molecule `CN1CCc2cc3c(cc2[C@@]12C(=O)c1ccc4c(c1[C@@H]2O)OCO4)OCO3`, the IC50 was more than 100 µM. To `CN1CCc2cc3c(cc2C(=O)Cc2ccc4c(c2C1)OCO4)OCO3` belongs more than 100 µM. To `CN1CCc2cc3c(cc2C12OCc1c(ccc4c1OCO4)C2=O)OCO3` (racemic) belongs more than 100 µM; to `CC1(c2nccc3cc4c(cc23)OCO4)OC(O)c2c1ccc1c2OCO1` (single isomer, unassigned), 11.3 µM; to `CC1(c2nccc3cc4c(cc23)OCO4)OC(O)c2c1ccc1c2OCO1` (single isomer, unassigned; epimer 1), 12.2 µM. With `CN1Cc2c(ccc3c2OCO3)-c2ccc3cc4c(cc3c21)OCO4` [DIHYDROSANGUINARINE] the figure was more than 100 µM.
